Measurements as given in patent publication US20080306056A1, “PYRAZOLE-DERIVATIVES AS FACTOR Xa INHIBITORS” (SANOFI-AVENTIS DEUTSCHLAND GMBH, priority 2002, published 2008).

biological target: T1, human factor Xa (Homo sapiens, UniProt P00742); test: Factor Xa assay (chromogenic, purified enzyme); assay type: biochemical; conditions: inhibition constant for factor Xa; chromogenic substrate S-2765 140 μM, enzyme 0.5 nM, 25° C., pH 7.8; Ki=IC50/{1+(substrate concentration/Km)}; read-out: Ki(FXa)
T1 construct: 25 μl human factor Xa (Enzyme Research Laboratories, Inc; South Bend, Ind.); purchased Enzyme Research Laboratories, Inc; South Bend, Ind
Text: The ability of the compound of formulae I, Ib and Ic to inhibit factor Xa or factor VIIa or other enzymes like thrombin, plasmin, or trypsin can be assessed by determining the concentration of the compound of the formulae I, Ib and Ic that inhibits enzyme activity by 50%, i.e. the IC50 value, which was related to the inhibition constant Ki. Purified enzymes were used in chromogenic assays. The concentration of inhibitor that causes a 50% decrease in the rate of substrate hydrolysis was determined by linear regression after plotting the relative rates of hydrolysis (compared to the uninhibited control) versus the log of the concentration of the compound of formulae I, Ib and Ic. For calculating the inhibition constant Ki, the IC50 value was corrected for competition with substrate using the formula wherein Km is the Michaelis-Menten constant (Chen and Prusoff, Biochem.
Ki=IC50/{1+(substrate concentration/Km)}
Pharmacol. 22 (1973) 3099-3108; I. H. Segal, Enzyme Kinetics, 1975, John Wiley & Sons, New York, 100-125; which were incorporated herein by reference).
The IC50 was determined by combining in appropriate wells of a Costar half-area microtiter plate 25 μl human factor Xa (Enzyme Research Laboratories, Inc.; South Bend, Ind.) in TBS-PEG; 40 μl 10% (v/v) DMSO in TBS-PEG (uninhibited control) or various concentrations of the compound to be tested diluted in 10% (v/v) DMSO in TBS-PEG; and substrate S-2765 (N(α)-benzyloxycarbonyl-D-Arg-Gly-L-Arg-p-nitroanilide; Kabi Pharmacia, Inc.; Franklin, Ohio) in TBS-PEG.
The assay was performed by pre-incubating the compound of formulae I, Ib and Ic plus enzyme for 10 min. Then the assay was initiated by adding substrate to obtain a final volume of 100 μl. The initial velocity of chromogenic substrate hydrolysis was measured by the change in absorbance at 405 nm using a Bio-tek Instruments kinetic plate reader (Ceres UV900HDi) at 25° C. during the linear portion of the time course (usually 1.5 min after addition of substrate). The enzyme concentration was 0.5 nM and substrate concentration was 140 μM.
The inhibitory activity towards factor VIIa/tissue factor activity was determined using a chromogenic assay essentially as described previously (J. A. Ostrem et al., Biochemistry 37 (1998) 1053-1059 which was incorporated herein by reference). Kinetic assays were conducted at 25° C. in half-area microtiter plates (Costar Corp., Cambridge, Mass.) using a kinetic plate reader (Molecular Devices Spectramax 250). A typical assay consisted of 25 μl human factor VIIa and TF (5 nM and 10 nM, respective final concentration) combined with 40 μl of inhibitor dilutions in 10% DMSO/TBS-PEG buffer (50 mM Tris, 15 mM NaCl, 5 mM CaCl2, 0.05% PEG 8000, pH 8.15). Following a 15 minute preincubation period, the assay was initiated by the addition of 35 μl of the chromogenic substrate S-2288 (D-Ile-Pro-Arg-p-nitroanilide, Pharmacia Hepar Inc., 500 μM final concentration).

T1 sequence (P00742 235-488 limits assumed): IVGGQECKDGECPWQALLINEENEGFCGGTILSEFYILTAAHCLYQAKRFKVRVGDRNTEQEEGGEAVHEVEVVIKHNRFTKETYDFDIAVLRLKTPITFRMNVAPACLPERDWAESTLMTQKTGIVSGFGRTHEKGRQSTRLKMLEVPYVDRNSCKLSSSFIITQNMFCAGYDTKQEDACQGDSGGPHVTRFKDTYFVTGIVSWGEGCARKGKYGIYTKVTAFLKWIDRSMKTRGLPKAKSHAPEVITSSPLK
T1 sequence (P00742 41-179 partner limits assumed): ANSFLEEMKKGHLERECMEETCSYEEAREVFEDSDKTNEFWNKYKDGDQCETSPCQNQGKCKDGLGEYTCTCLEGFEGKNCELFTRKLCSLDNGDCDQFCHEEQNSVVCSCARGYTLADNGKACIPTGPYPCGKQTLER

SMILES | Ki [nM]
CC(C)N1CCC(NC(=O)c2cc(C(=O)NC3CCC3)nn2Cc2cc(-c3ccc(Cl)s3)on2)CC1 [Example 46, 1-[5-(5-Chloro-thiophen-2-yl)-isoxazol-3-ylmethyl]-1H-pyrazole-3,5-dicarboxylic acid 3-cyclobutylamide 5-[(1-isopropyl-piperidin-4-yl)-amide]] | 106
COCCNC(=O)c1cc(C(=O)NC2CCN(C(C)C)CC2)n(Cc2cc(-c3ccc(Cl)s3)on2)n1 [Example 47, 1-[5-(5-Chloro-thiophen-2-yl)-isoxazol-3-ylmethyl]-1H-pyrazole-3,5-dicarboxylic acid 5-[(1-isopropyl-piperidin-4-yl)-amide] 3-[(2-methoxy-ethyl)-amide]] | 86
CC(C)N1CCC(NC(=O)c2cc(C(=O)N3CCCC3)nn2Cc2cc(-c3ccc(Cl)s3)on2)CC1 [Example 48, 2-[5-(5-Chloro-thiophen-2-yl)-isoxazol-3-ylmethyl]-5-(pyrrolidine-1-carbonyl)-2H-pyrazole-3-carboxylic acid (1-isopropyl-piperidin-4-yl)-amide] | 183
CC(C)N1CCC(NC(=O)c2cc(C(=O)NC#N)nn2Cc2cc(-c3ccc(Cl)s3)on2)CC1 [Example 49, 2-[5-(5-Chloro-thiophen-2-yl)-isoxazol-3-ylmethyl]-5-(cyanamide-1-carbonyl)-2H-pyrazole-3-carboxylic acid (1-isopropyl-piperidin-4-yl)-amide] | 40
COC(=O)c1cc(C(=O)NC2CCN(C(C)C)CC2)n(CC(=O)Nc2ccc(Cl)cn2)n1 [Example 50, 1-[(5-Chloro-pyridin-2-ylcarbamoyl)-methyl]-5-(1-isopropyl-piperidin-4-ylcarbamoyl)-1H-pyrazole-3-carboxylic acid methyl ester] | 10
CC(C)N1CCC(NC(=O)c2cc(C(=O)NC3CCC3)nn2CC(=O)Nc2ccc(Cl)cn2)CC1 [Example 52, 1-[(5-Chloro-pyridin-2-ylcarbamoyl)-methyl]-1H-pyrazole-3,5-dicarboxylic acid 3-cyclobutylamide 5-[(1-isopropyl-piperidin-4-yl)-amide]] | 16
CC(C)N1CCC(NC(=O)c2c(C#N)cnn2Cc2cc(-c3ccc(Cl)s3)on2)CC1 [Example 55, 2-[5-(5-Chloro-thiophen-2-yl)-isoxazol-3-ylmethyl]-4-cyano-2H-pyrazole-3-carboxylic acid (1-isopropyl-piperidin-4-yl)-amide] | 99
CC(C)N1CCC(NC(=O)c2nn(Cc3cc(-c4ccc(Cl)s4)on3)cc2C#N)CC1 [Example 56, 1-[5-(5-Chloro-thiophen-2-yl)-isoxazol-3-ylmethyl]-4-cyano-1H-pyrazole-3-carboxylic acid (1-isopropyl-piperidin-4-yl)-amide] | 144
CC(C)N1CCC(NC(=O)c2c(C#N)cnn2CC(=O)Nc2ccc(Cl)cc2)CC1 [Example 57, 2-[(4-Chloro-phenylcarbamoyl)-methyl]-4-cyano-2H-pyrazole-3-carboxylic acid (1-isopropyl-piperidin-4-yl)-amide] | 410
CC(C)N1CCC(NC(=O)c2cc(C(=O)NCCC(=O)O)nn2Cc2cc(-c3ccc(Cl)s3)on2)CC1 [Example 58, 3-{[1-[5-(5-Chloro-thiophen-2-yl)-isoxazol-3-ylmethyl]-5-(1-isopropyl-piperidin-4-ylcarbamoyl)-1H-pyrazole-3-carbonyl]-amino}-propionic acid] | 63
CONC(=O)c1cc(C(=O)NC2CCN(C(C)C)CC2)n(Cc2cc(-c3ccc(Cl)s3)on2)n1 [Example 59, 1-[5-(5-Chloro-thiophen-2-yl)-isoxazol-3-ylmethyl]-1H-pyrazole-3,5-dicarboxylic acid 5-[(1-isopropyl-piperidin-4-yl)-amide] 3-(methoxy-amide)] | 94
CC(C)N1CCC(NC(=O)c2cc(C(=O)NCC(N)=O)nn2Cc2cc(-c3ccc(Cl)s3)on2)CC1 [Example 60, 1-[5-(5-Chloro-thiophen-2-yl)-isoxazol-3-ylmethyl]-1H-pyrazole-3,5-dicarboxylic acid 3-carbamoylmethyl-amide 5-[(1-isopropyl-piperidin-4-yl)-amide]] | 56
CCOC(=O)CNC(=O)c1cc(C(=O)NC2CCN(C(C)C)CC2)n(Cc2cc(-c3ccc(Cl)s3)on2)n1 [Example 61, {[1-[5-(5-Chloro-thiophen-2-yl)-isoxazol-3-ylmethyl]-5-(1-isopropyl-piperidin-4-ylcarbamoyl)-1H-pyrazole-3-carbonyl]-amino}-acetic acid ethyl ester] | 101
CC(C)N1CCC(NC(=O)c2cc(C(=O)NCCCO)nn2Cc2cc(-c3ccc(Cl)s3)on2)CC1 [Example 62, 1-[5-(5-Chloro-thiophen-2-yl)-isoxazol-3-ylmethyl]-1H-pyrazole-3,5-dicarboxylic acid 3-[(3-hydroxy-propyl)-amide] 5-[(1-isopropyl-piperidin-4-yl)-amide]] | 80
CC(C)N1CCC(NC(=O)c2cc(C(=O)N3CC[C@H]3C(=O)O)nn2Cc2cc(-c3ccc(Cl)s3)on2)CC1 [Example 63, 1-[1-[5-(5-Chloro-thiophen-2-yl)-isoxazol-3-ylmethyl]-5-(1-isopropyl-piperidin-4-ylcarbamoyl)-1H-pyrazole-3-carbonyl]-(2S)-azetidine-2-carboxylic acid] | 134
CC(C)N1CCC(NC(=O)c2cc(C(=O)N3CCC[C@H]3CO)nn2Cc2cc(-c3ccc(Cl)s3)on2)CC1 [Example 64, 2-[5-(5-Chloro-thiophen-2-yl)-isoxazol-3-ylmethyl]-5-(2S,2-hydroxymethyl-pyrrolidine-1-carbonyl)-2H-pyrazole-3-carboxylic acid (1-isopropyl-piperidin-4-yl)-amide] | 90
CC(C)N1CCC(NC(=O)c2cc(C(=O)N3CCC[C@H]3C(=O)O)nn2Cc2cc(-c3ccc(Cl)s3)on2)CC1 [Example 65, 1-[1-[5-(5-Chloro-thiophen-2-yl)-isoxazol-3-ylmethyl]-5-(1-isopropyl-piperidin-4-ylcarbamoyl)-1H-pyrazole-3-carbonyl]-2S-pyrrolidine-2-carboxylic acid] | 142
COC[C@@H]1CCCN1C(=O)c1cc(C(=O)NC2CCN(C(C)C)CC2)n(Cc2cc(-c3ccc(Cl)s3)on2)n1 [Example 66, 2-[5-(5-Chloro-thiophen-2-yl)-isoxazol-3-ylmethyl]-5-(2S,2-methoxymethyl-pyrrolidine-1-carbonyl)-2H-pyrazole-3-carboxylic acid (1-isopropyl-piperidin-4-yl)-amide] | 152
COC[C@H]1CC[C@H](COC)N1C(=O)c1cc(C(=O)NC2CCN(C(C)C)CC2)n(Cc2cc(-c3ccc(Cl)s3)on2)n1 [Example 67, 5-(2R,5R,2,5-Bis-methoxymethyl-pyrrolidine-1-carbonyl)-2-[5-(5-chloro-thiophen-2-yl)-isoxazol-3-ylmethyl]-2H-pyrazole-3-carboxylic acid (1-isopropyl-piperidin-4-yl)-amide] | 420
CC(C)N1CCC(NC(=O)c2cc(C(=O)NC3=NCCO3)nn2Cc2cc(-c3ccc(Cl)s3)on2)CC1 [Example 68, 1-[5-(5-Chloro-thiophen-2-yl)-isoxazol-3-ylmethyl]-1H-pyrazole-3,5-dicarboxylic acid 3-[(4,5-dihydro-oxazol-2-yl)-amide] 5-[(1-isopropyl-piperidin-4-yl)-amide]] | 99
CCOC(=O)C1CCN(C(=O)c2cc(C(=O)NC3CCN(C(C)C)CC3)n(Cc3cc(-c4ccc(Cl)s4)on3)n2)CC1 [Example 69, 1-[1-[5-(5-Chloro-thiophen-2-yl)-isoxazol-3-ylmethyl]-5-(1-isopropyl-piperidin-4-ylcarbamoyl)-1H-pyrazole-3-carbonyl]-piperidine-4-carboxylic acid ethyl ester] | 177
CC(C)N1CCC(NC(=O)c2cc(C(=O)NCCN3CCOCC3)nn2Cc2cc(-c3ccc(Cl)s3)on2)CC1 [Example 70, 1-[5-(5-Chloro-thiophen-2-yl)-isoxazol-3-ylmethyl]-1H-pyrazole-3,5-dicarboxylic acid 5-[(1-isopropyl-piperidin-4-yl)-amide] 3-[(2-morpholin-4-yl-ethyl)-amide]] | 182
